Laboratory results as given in patent publication US20170151192A1, “METHODS, COMPOSITIONS AND DEVICES FOR TREATMENT OF MOTOR AND DEPRESSION SYMPTOMS ASSOCIATED WITH PARKINSON'S DISEASE” (N TO B LTD., priority 2013, published 2017).
Read-outs that look alike come from different tables or passages of the source.

Columns and labels:
[1] = test system: pressor responses to oral tyramine; conditions: rats, cited from earlier work
MAO-B [2] = target: T1, MAO-B (Rattus norvegicus, UniProt P19643); conditions: both regimens (intranasal and oral), 0.24 and 0.6 mg/Kg, p<0.05, data not shown
T1 sequence (P19643 whole entry): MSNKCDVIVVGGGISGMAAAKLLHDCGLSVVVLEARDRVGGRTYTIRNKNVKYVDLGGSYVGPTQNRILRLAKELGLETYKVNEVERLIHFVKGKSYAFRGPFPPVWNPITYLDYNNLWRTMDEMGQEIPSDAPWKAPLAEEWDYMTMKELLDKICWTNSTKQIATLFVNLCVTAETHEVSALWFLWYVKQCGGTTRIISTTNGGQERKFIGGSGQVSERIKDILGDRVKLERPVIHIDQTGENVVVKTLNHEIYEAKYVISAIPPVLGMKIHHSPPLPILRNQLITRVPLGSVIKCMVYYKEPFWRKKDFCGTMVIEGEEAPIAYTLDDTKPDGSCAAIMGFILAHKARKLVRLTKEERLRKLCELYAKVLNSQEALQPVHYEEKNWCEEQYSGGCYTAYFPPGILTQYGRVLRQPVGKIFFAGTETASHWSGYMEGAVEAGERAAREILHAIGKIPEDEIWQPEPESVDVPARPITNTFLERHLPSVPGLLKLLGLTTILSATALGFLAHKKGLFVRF
Experimental: (§1) The animals were acutely administered and sacrificed 4 hours following drug/vehicle administration. The brain regions, hippocampus and striatum, as well as the small intestine were dissected out. All tissues were frozen at −80° C. for further analysis.

MAO-A [3] = target: T2, MAO-A (Rattus norvegicus, UniProt P21396)
T2 sequence (P21396 whole entry): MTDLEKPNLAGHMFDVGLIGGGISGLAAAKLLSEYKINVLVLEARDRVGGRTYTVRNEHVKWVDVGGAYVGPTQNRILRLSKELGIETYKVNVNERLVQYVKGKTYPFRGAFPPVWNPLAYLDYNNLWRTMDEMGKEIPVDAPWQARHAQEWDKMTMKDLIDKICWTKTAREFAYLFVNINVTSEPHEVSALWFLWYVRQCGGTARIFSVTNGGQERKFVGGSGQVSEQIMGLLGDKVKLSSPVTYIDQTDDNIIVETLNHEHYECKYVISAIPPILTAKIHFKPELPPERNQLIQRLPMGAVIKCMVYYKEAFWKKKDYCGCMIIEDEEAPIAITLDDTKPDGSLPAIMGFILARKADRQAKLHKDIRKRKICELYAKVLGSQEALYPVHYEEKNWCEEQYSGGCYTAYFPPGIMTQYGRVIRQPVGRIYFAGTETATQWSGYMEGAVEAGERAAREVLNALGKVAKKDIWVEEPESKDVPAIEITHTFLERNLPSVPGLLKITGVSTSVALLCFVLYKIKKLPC
Experimental: as §1

MAO-B [4] = target: T1, MAO-B; experiment: in vivo
Experimental: (§2) Control liquid formulations included vehicle only.
(§3) The animals were acutely administered intranasally and sacrificed 4 hours following drug/vehicle administration. The brain regions, hippocampus and striatum, as well as the small intestine were dissected out. […] In brief, samples were dissected out at 4° C. and homogenized. Homogenates were incubated with [C^14]serotonin for 30 minutes (final concentration 100 μM) as a substrate for MAO-A, or with [C^14]phenylethylamine for 20 minutes (final concentration 100 μM) as a substrate for MAO-B. The radioactivity was determined by liquid- scintillation.

MAO-A [5] = target: T2, MAO-A; experiment: in vivo; conditions: for inhibition at 6 mg/kg / inhibition at 0.6 mg/kg / inhibition at 1.5 mg/kg: rat, inhaled or nasal
Experimental: as §2, §3

MAO-B [6] = target: T1, MAO-B; conditions: 0.1 and 0.3 mg/kg, 1 hour after treatment
Description: (§4) Adult (3-month old) male Sprague Dawley rats, weighing about 250 grams, were from Harlan Laboratories, Inc Israel.

MAO-A [7] = target: T2, MAO-A; conditions: 0.3 mg/kg, 1 hour after treatment
Description: as §4

[8] = extensive first pass hepatic metabolism; cited from earlier work

C#CCN[C@@H]1CCc2ccccc21 [Rasagiline, N-propargyl-1-(R)-aminoindan]
cheese reaction (MAO-A and MAO-B both inhibited) ([1]; 10 mg/kg oral dose): induces the “cheese reaction”
potentiation of pressor responses to oral tyramine ([1]; 21 days chronic treatment, oral doses up to 2 mg/kg daily): does not potentiate
potentiation of pressor responses to oral tyramine ([1]; single oral doses up to 5 mg/kg): does not potentiate
MAO-B activity inhibition in striatum and hippocampus (MAO-B [2]): about 99%
MAO-A inhibition in striatum and hippocampus, intranasal (powder) compared to oral (MAO-A [3]; 0.24 and 0.6 mg/Kg, 4 h, FIGS. 8A-B): significantly increased
MAO-A inhibition in the periphery (small intestine), intranasal compared to P.O. (MAO-A [3]; 0.24 and 0.6 mg/kg, FIG. 9): significantly lower
MAO-B activity inhibition in striatum and hippocampus (MAO-B [4]; intranasal, 0.24 to 6 mg/kg, both powder and liquid formulations, p<0.05 vs vehicle): about 98%
inhibition at 0.6 mg/kg (MAO-B [4]; rat, inhaled or nasal, read-out: MAO-B Inhibition, Intestine, intranasal, 0.6 mg/kg liquid formulation, 4 h): 63%
inhibition at 0.6 mg/kg (MAO-B [4]; rat, inhaled or nasal, read-out: MAO-B Inhibition, Intestine, intranasal, 0.6 mg/kg powder formulation, 4 h): 68%
inhibition at 1.5 mg/kg (MAO-B [4]; rat, inhaled or nasal, read-out: MAO-B Inhibition, Intestine, intranasal, 1.5 mg/kg powder formulation, 4 h): 72%
inhibition at 6 mg/kg (MAO-B [4]; rat, inhaled or nasal, read-out: MAO-B Inhibition, Intestine, intranasal, 6 mg/kg liquid formulation, 4 h): 75%
inhibition at 6 mg/kg (MAO-B [4]; rat, inhaled or nasal, read-out: MAO-B Inhibition, Intestine, intranasal, 6 mg/kg powder formulation, 4 h): 78%
MAO-A activity in striatum and hippocampus, dose dependence (MAO-A [5]; intranasal powder formulation, 0.24, 0.6, 1.5 and 6 mg/kg, FIG. 6): dose-dependently inhibited
striatal MAO-A inhibition, powder compared to liquid formulation (MAO-A [5]; intranasal, 0.6 mg/kg, FIG. 5): significant higher inhibition
inhibition at 6 mg/kg (MAO-A [5]; read-out: MAO-A inhibition in striatum and hippocampus, intranasal, 6 mg/kg powder formulation): > 90%
inhibition at 0.6 mg/kg (MAO-A [5]; read-out: MAO-A inhibition, Brain, intranasal, 0.6 mg/kg liquid formulation, 4 h): 33%
inhibition at 0.6 mg/kg (MAO-A [5]; read-out: MAO-A inhibition, Brain, intranasal, 0.6 mg/kg powder formulation, 4 h): 44%
inhibition at 6 mg/kg (MAO-A [5]; read-out: MAO-A inhibition, Brain, intranasal, 6 mg/kg liquid formulation, 4 h): 91%
inhibition at 1.5 mg/kg (MAO-A [5]; read-out: MAO-A inhibition, Hippocampus, intranasal, 1.5 mg/kg powder formulation, 4 h): 86%
inhibition at 0.6 mg/kg (MAO-A [5]; read-out: MAO-A inhibition, Intestine, intranasal, 0.6 mg/kg liquid formulation, 4 h): 32%
inhibition at 0.6 mg/kg (MAO-A [5]; read-out: MAO-A inhibition, Intestine, intranasal, 0.6 mg/kg powder formulation, 4 h): 42%
inhibition at 1.5 mg/kg (MAO-A [5]; read-out: MAO-A inhibition, Intestine, intranasal, 1.5 mg/kg powder formulation, 4 h): 74%
inhibition at 6 mg/kg (MAO-A [5]; read-out: MAO-A inhibition, Intestine, intranasal, 6 mg/kg liquid formulation, 4 h): 86%
inhibition at 6 mg/kg (MAO-A [5]; read-out: MAO-A inhibition, Intestine, intranasal, 6 mg/kg powder formulation, 4 h): 92%
inhibition at 0.6 mg/kg (MAO-A [5]; read-out: MAO-A inhibition, Liver, intranasal, 0.6 mg/kg liquid formulation, 4 h): 19%
inhibition at 0.6 mg/kg (MAO-A [5]; read-out: MAO-A inhibition, Liver, intranasal, 0.6 mg/kg powder formulation, 4 h): 44%
inhibition at 6 mg/kg (MAO-A [5]; read-out: MAO-A inhibition, Liver, intranasal, 6 mg/kg liquid formulation, 4 h): 83%
inhibition at 0.6 mg/kg (MAO-A [5]; read-out: MAO-A inhibition, Striatum, intranasal, 0.6 mg/kg powder formulation, 4 h): 61%
inhibition at 6 mg/kg (MAO-A [5]; read-out: MAO-A inhibition, Striatum, intranasal, 6 mg/kg powder formulation, 4 h): 98%
difference in brain MAO-B inhibition between IP and NAS (MAO-B [6]; FIG. 2): no significant difference
differences in liver MAO-B inhibition between IP and NAS (MAO-B [6]; FIG. 4): No significant differences
brain MAO-A inhibition, NAS delivery compared to IP (MAO-A [7]; FIG. 1): significantly inhibited
liver MAO-A inhibition, IP compared to NAS delivery (MAO-A [7]; FIG. 3): significantly inhibited

C#CCN(C)[C@H](C)Cc1ccccc1 [Selegiline, (R)-N-methyl-N-(1-phenylpropan-2-yl)prop-1-yn-3-amine]
oral bioavailability [8]: 4-10%
